Row | melting point | SMILES
1 | 140 to 142 °C | NC(=O)CN1C(=O)C[C@@H]2CCCCC[C@@H]21 (relative stereo)
2 | 170 to 172 °C | Cc1nc2cccc(OCC(C)(C)C(=O)NCC3CCC3)c2c(N)c1C(=O)O
3 | 120 °C | CCCCCCCCOc1cccc2c1OCO2
4 | 150 °C | CCC1(CC(=O)OC2OC(=O)c3ccccc32)OCCc2c1[nH]c1cc(OC(F)(F)F)ccc21 (stereo unspecified)
5 | 107 °C | O=C(Cl)CC1(c2ccccc2)C(=O)Oc2ccc(Cl)cc21 (stereo unspecified)
6 | 207 to 208 °C | N#Cc1ccc2nc(C(=O)NCc3cccc(CNC(=O)Cc4nc[nH]n4)c3)[nH]c(=O)c2c1
7 | 91 to 93 °C | CCCCc1ccc(C(=O)SCC2C(=O)OCC2c2ccccc2)cc1 (stereo unspecified)
8 | 161 to 162 °C | Cc1c(NC(=O)c2ccc(Oc3ccccc3)cc2)ccc2cc(CN3CCCC3)cnc12
9 | 144 to 149 °C | COC(=O)c1c(Cl)cccc1S(N)(=O)=O
10 | 302 to 303 °C | O=C1C(O)=C(c2ccc3ccccc3c2)C(=O)C(O)=C1c1ccc(Cl)cc1
11 | 275 to 277 °C | O=C1NC(=S)SC1=Cc1cc(Cl)c2c(c1)N(CCc1ccc(C(F)(F)F)cc1)C(=O)CO2
12 | 193 to 195 °C | CSc1sc(-c2ccn(S(C)(=O)=O)n2)c2c1C(=O)CC(C)(C)C2
13 | 154 to 155 °C | COc1ccc(C(=O)Nc2cccnc2)cc1NCc1cccs1
14 | 135 to 136 °C | COc1ccc(CCNc2ncnc3occc23)cc1
15 | 178 to 180 °C | COc1ccc(N2CCN(c3c(C)c(C)c4c(c3C)CC(C)(C)O4)CC2)cn1
16 | 45 to 50 °C | CC(c1ccccc1)N1Cc2cncn2C(c2cccc(Br)c2)C1=O (single isomer, unassigned; (+))
17 | 103 to 104 °C | CCOC(=O)COc1nnc(-c2ccc3c(c2)CCO3)o1
18 | 172 °C | COc1cc(Nc2nccc(Nc3ccc(CCO)cc3)n2)cc(OC)c1OC
19 | 42 °C | COC(=O)N(C)CCc1ccc([N+](=O)[O-])c(CS(=O)(=O)c2ccccc2)c1
20 | 110 to 112 °C | CC(C)(C)OC(=O)N[C@@H](Cc1ccc(OS(=O)(=O)C(F)(F)F)cc1)C(=O)OC(c1ccccc1)c1ccccc1
21 | 65 to 66 °C | CC(=NO)C(C)(C)COc1ccc(F)cc1
22 | 130 to 132 °C | CC(C)(C)c1nc2cc(N3CCCC3)c(N)cc2s1
23 | 249 °C | O=C(Nc1ncc(C(F)(F)F)o1)C1c2ccc(F)cc2Oc2cc(F)ccc21

Row | melting point | SMILES
24 | 155 °C | OC1CSC(Oc2cccn3ncnc23)C(O)C1O (stereo unspecified)
25 | 173 to 175 °C | CO[C@@H](Cc1ccc(OCCc2nc(-c3ccc(C(F)(F)F)cc3)oc2C)c2ccsc12)C(=O)O
26 | 98 °C | CC(C)(C)OC(=O)C(Cc1c[nH]cn1)N(C(=O)OC(C)(C)C)C(=O)OC(C)(C)C (stereo unspecified)
27 | 131 to 132 °C | CCOC(=O)Cc1nn(Cc2nc3cc(C(F)(F)F)ccc3s2)c(=O)c2ccccc12
28 | 278 to 280 °C | CC(=NNC(=N)N)c1sc(-c2ccc(-c3ccccc3)cc2)nc1C
29 | 167 to 169 °C | COC(=O)c1nn(-c2ccccc2)c2sc(CN3CCOCC3)cc2c1=O
30 | 34 to 38 °C | CCOC(=O)c1cnoc1-c1ccc(F)cc1
31 | 158 to 160 °C | CCN(CC)CCNCc1ccc(C(=O)Nc2nc(-c3ccccc3)c(-c3ccc(=O)n(C(C)C)n3)s2)cc1
32 | 127 to 129 °C | Cc1cc(C)c2ncc(NC(=O)c3cc(C(C)(C)C)c(O)c(C(C)(C)C)c3)c(-c3ccccc3Cl)c2c1
33 | 104 °C | COC(=O)c1cc(CO)nn1-c1ncccc1Cl
34 | 105 to 107 °C | COC1=C(OC)C(=O)C2=C(CCC(CCOc3ccc(C#N)cc3)CC2)C1=O
35 | 112 to 115 °C | Cc1onc(-c2ccc(-c3cscn3)cc2)c1-c1ccc(S(N)(=O)=O)cc1
36 | 114 to 118 °C | Cc1c(Cl)cc(C(=O)C(O)CC(=O)O)cc1Cl (stereo unspecified)
37 | 220 to 221 °C | COc1ccc(C(=O)O)c2cccc(S(=O)(=O)N(C)C)c12
38 | 188 °C | Cc1cc(OC(F)(F)C(F)C(F)(F)F)ccc1NC(=O)c1cccc(I)c1 (stereo unspecified)
39 | 87 to 88 °C | Cc1ccnc([N+](=O)[O-])c1O
40 | 64 to 64.5 °C | Cc1ccc(S(=O)(=O)C(C)(C)C(=O)c2ccccc2)cc1
41 | 117 to 118 °C | COCc1nc2ncccc2n1Cc1ccc(C(=O)N(C(C)C)C2CCCCC2)cc1OC
42 | 48 to 51 °C | CCCCCCCCC(CO)CO
43 | 97 to 113 °C | O=C(c1ccc(F)cc1)C1CCN(CCN(C(=O)c2cccc([N+](=O)[O-])c2)c2ccc(F)cc2)CC1
44 | 242 to 244 °C | Cc1cc(S(=O)(=O)O)ccc1OCc1ccccc1C(=O)O
45 | 260 to 261 °C | O=C1c2ccccc2NC(c2ccc(=O)[nH]c2)N1c1ccc(F)c(C(F)(F)F)c1 (stereo unspecified)
46 | 217 to 229 °C | CCNC(=O)c1nc2cc(NC(=O)c3c(C(=O)N4CCC4)cnn3C)ccn2n1

Row | melting point | SMILES
47 | 285 to 288 °C | NC(/C=C(/F)P(=O)(O)O)CCc1ccc(Sc2cccc(OCc3ccccc3)c2)cc1Cl (stereo unspecified)
48 | 83 to 85 °C | CCCN(c1ccccc1)S(=O)(=O)c1ccc(C(CC2CCCC2)C(=O)Nc2nc3ccc(OC)nc3s2)cc1 (stereo unspecified)
49 | 154 °C | Cc1cc(OCc2sc(-c3ccc(C(F)(F)F)cc3)nc2C)ccc1OC(C)(C)C(=O)O
50 | 236 °C | CCOC(=N)c1sc2ccc(Cl)cc2c1O
51 | 133 to 134 °C | CCCCNC(=O)Nc1ccccc1CCc1cc(C(C)(C)C)c(O)c(C(C)(C)C)c1
52 | 175 °C | O=C(NCc1cccnc1)c1ccc2n1Cc1ccccc1N(C(=O)/C=C/c1ccccc1)C2
53 | 162 to 163 °C | COc1ccc(C(=O)c2ccc(OCc3nc(-c4ccccc4)oc3C)nc2)c(OC(C)C(=O)O)c1 (stereo unspecified)
54 | 230 to 235 °C | COc1ccc(Cn2cc(C(=O)O)c(=O)c3ccc(N4CCNCC4)cc32)cc1
55 | 180 °C | Oc1ccc(Nc2nc(Cl)nc(Cl)n2)cc1Cl
56 | 118 to 120 °C | CN(O)C(=O)Cc1ccc2c(c1)C(=O)c1ccccc1CO2
57 | 152 to 163 °C | CCc1nc2cc(C(N)=O)c(Cl)cc2n1-c1ccc(CCNC(=O)NS(=O)(=O)c2ccc(C)cc2)cc1
58 | 55 °C | C=C(C)C(=O)NOC(=O)C(=C)C
59 | 81 to 83 °C | Cc1nc(C)c(-c2ccnc(Nc3ccc(C)c(S(=O)(=O)N4CCOCC4)c3)n2)s1
60 | 194 to 196 °C | CN1C(=O)N(C)C(c2c(C(C)(C)C)cc(O)cc2C(C)(C)C)N(C)C1=O
61 | 196 to 200 °C | Nc1ccccc1C(=O)NC(=O)Nc1ccc(Oc2ncc(Br)cn2)c(Cl)c1
62 | 134 to 138 °C | O=C(c1nn(-c2ccc(F)cc2F)c2c1C1CCC2C1)N1CCc2ccccc2C1 (stereo unspecified)
63 | 152 to 153 °C | Cn1nc(Oc2ccc([N+](=O)[O-])c([N+](=O)[O-])c2)c(Br)c1C(F)(F)F
64 | 102 to 103 °C | CCOC(=O)CSC1=C(C=O)CCc2c(C(=O)OCC)sc(SC)c21
65 | 153 °C | O=C(c1nc(-c2ccccc2)nc2ccccc12)N1CCCC1
66 | 112 to 114 °C | CN(C)C=C(C=O)c1ccc(Cl)cc1Cl
67 | 210 to 211 °C | O=C(O)Cc1c(-c2ccccc2)n[nH]c1-c1ccccc1
68 | 100 to 104 °C | COC1OCC[C@@H]1NC(=O)[C@H](CC(C)C)NC(=O)CNC(=O)C(C)(C)Oc1ccc2c(c1)Nc1ccccc1S2 (stereo partly specified)
69 | 191 to 193 °C | CC1(C)C(=O)N(c2ccc([N+](=O)[O-])c(C(F)(F)F)c2)C(=O)N1CC=CCN1C(=O)N(c2ccc([N+](=O)[O-])c(C(F)(F)F)c2)C(=O)C1(C)C

Row | melting point | SMILES
70 | 165 to 169 °C | Nc1c(Br)cc(Br)cc1S(N)(=O)=O
71 | 128 to 131 °C | Fc1ccc(-c2cnc3nc(C(F)(F)F)cnn23)cc1-c1ccccn1
72 | 149 to 160 °C | CS(=O)(=O)N1Cc2nc3c(N)nc4c(c3n2C(CCCNC(=O)N2CCOCC2)C1)CCCC4 (stereo unspecified)
73 | 180 °C | CCCCC(=O)c1ccc(C(=O)Nc2ccc3cc(CN4CCCC4)cnc3c2C)cc1
74 | 139 to 140 °C | COc1cccc2c(=O)cc(-c3ccccc3SCc3ccccc3)[nH]c12
75 | 110 to 112 °C | CCOC(=O)C1=C(COCc2nc(CCN)cs2)NC(C)=C(C(=O)OC)C1c1cccc(Cl)c1Cl (stereo unspecified)
76 | 166 to 168 °C | O=[N+]([O-])c1ccc(Sc2cc(Br)nc(Br)c2)cc1
77 | 132 to 134 °C | CCOc1ccc(C2C(=O)Oc3c2cc(C(C)(C)C)cc3C(C)(C)C)cc1 (stereo unspecified)
78 | 125 °C | CNCCCN(C)C(=O)[C@@H]1CCCN1S(=O)(=O)c1ccc(Cl)c(COc2cccc3c(-n4ccnc4)cc(C)nc23)c1Cl
79 | 204 to 205 °C | Cc1ccc2c(c1)CCC1=C2CCC(=O)N1
80 | 110 to 111 °C | COc1cc2c(cc1OC)CN(C(=O)Cc1ccc([N+](=O)[O-])cc1)CC2
81 | 128 to 139 °C | COCCCCC1(O)C2=NCCCN2c2ccccc21 (stereo unspecified)
82 | 140 to 143 °C | COC(=O)c1cccc(OC)c1OS(=O)(=O)NC(=O)Nc1nc(C)cc(Cl)n1
83 | 145 to 146 °C | CC(C)(C)OC(=O)NC(C)(C)c1ccc(-c2ccno2)cc1
84 | 100 to 102 °C | CC1(C)CNc2cc(Br)ccc21
85 | 136 to 140 °C | CON(C)S(=O)(=O)c1ccccc1S(N)(=O)=O
86 | 104 to 106 °C | C=CCN/C(=C1/Sc2ccccc2C1=O)c1ccccc1
87 | 162 to 163 °C | COc1ccc(NC(=O)c2ccccc2O)cc1
88 | 141 °C | CN(C(=O)N[C@@H](Cc1ccc(Nc2nccc3cnccc23)cc1)C(=O)O)c1ccccc1Cc1ccccc1
89 | 156 to 159 °C | CC(C)C[C@@H](C#N)NC(=O)[C@@H]1CCCC[C@@H]1NC(=O)c1ccc(-n2cncn2)cc1
90 | 154 to 157 °C | O=C(Nc1ccccc1)n1cc(F)c(NCc2ccccc2F)nc1=O
91 | 163 to 164 °C | Cc1ccccc1NC(=O)CN1C[C@@H](C)N(S(=O)(=O)c2cccc([N+](=O)[O-])c2)[C@@H](C)C1

Row | SMILES | melting point
92 | COCCOc1ccc(OCC2(O)CN3CCC2CC3)cc1 (stereo unspecified) | 93 to 95 °C
93 | O=C1c2ccccc2-n2cnc(C=NO)c2[C@@H]2CCCN12 | 285 °C
94 | CC(C)(C)C(Br)(Br)C(=O)O | 241 to 243 °C
95 | N#Cc1nn(-c2c(Cl)cc(C(F)(F)F)cc2Cl)cc1C1CC(=O)C1 | 127 °C
96 | CSC(=N[N+](=O)[O-])N(C)C(C)=O | 40 to 41 °C

— a melting point compilation (Tetko et al.; mined from patent text by program, amines drawn as free bases though some values may be those of a salt)
